From ChEMBL document CHEMBL1130564, “The dipeptide neurokinin-1 receptor antagonist S19752 is a potent and long-acting inhibitor of bronchoconstriction when administered by aerosol to the guinea pig in vivo” (Bioorg Med Chem Lett, 1997)

Key:
[1] = organism: Cavia porcellus; experiment: Inhibition of capsaicin-induced plasma extravasation in guinea pig bronchi; format: functional
[2] = test system: Cavia porcellus; experiment: Tested for the ability to inhibit substance P induced bronchoconstriction in guinea pig and the dose that was effective even after 40 minutes of compound administration, was reported.; format: functional
[3] = test system: Cavia porcellus; experiment: Tested for the ability to inhibit substance P induced bronchoconstriction, in guinea pig, after intravenous administration. The inhibitory dose at 3 minutes, was reported.; format: functional; settings: 0.05 h, read-out: ID50 (the source's name)
[4] = target: T1, Substance-K receptor (Homo sapiens, UniProt P21452); experiment: Binding affinity for NK-2 receptor was determined in a radioligand binding assay using chinese hamster ovary cells.; format: cell-based
T1 sequence (P21452 whole entry): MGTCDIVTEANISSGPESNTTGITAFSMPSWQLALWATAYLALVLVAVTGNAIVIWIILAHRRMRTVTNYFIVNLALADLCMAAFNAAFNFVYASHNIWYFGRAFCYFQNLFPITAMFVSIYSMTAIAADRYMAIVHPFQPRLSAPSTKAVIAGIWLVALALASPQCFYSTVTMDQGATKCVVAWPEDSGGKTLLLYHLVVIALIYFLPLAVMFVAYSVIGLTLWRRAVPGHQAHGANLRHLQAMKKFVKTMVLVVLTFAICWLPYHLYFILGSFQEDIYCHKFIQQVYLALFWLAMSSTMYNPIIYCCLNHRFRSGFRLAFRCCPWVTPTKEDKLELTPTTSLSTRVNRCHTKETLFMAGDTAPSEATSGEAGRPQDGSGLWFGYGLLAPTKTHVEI

[5] = target: Substance-P receptor (Homo sapiens, UniProt P25103); experiment: Binding affinity for NK-1 receptor was determined in a radioligand binding assay using IM9 human lymphoblastoma cell line.
Substance-P receptor, sequence (P25103 whole entry): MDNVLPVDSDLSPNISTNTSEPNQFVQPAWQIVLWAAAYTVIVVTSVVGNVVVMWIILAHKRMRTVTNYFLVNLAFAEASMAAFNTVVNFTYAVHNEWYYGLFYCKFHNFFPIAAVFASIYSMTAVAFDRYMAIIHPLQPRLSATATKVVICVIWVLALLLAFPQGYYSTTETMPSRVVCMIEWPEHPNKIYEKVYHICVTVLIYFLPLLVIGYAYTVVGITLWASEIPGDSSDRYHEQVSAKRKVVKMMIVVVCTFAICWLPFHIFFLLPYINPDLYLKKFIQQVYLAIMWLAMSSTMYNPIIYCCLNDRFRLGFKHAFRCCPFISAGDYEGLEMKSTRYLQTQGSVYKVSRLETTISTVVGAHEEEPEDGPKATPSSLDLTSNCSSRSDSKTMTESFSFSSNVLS

[6] = target: T2, Substance-K receptor (Oryctolagus cuniculus, UniProt P79218); experiment: […] for NK-2 receptor was determined in vitro using isolated rabbit pulmonary artery.
T2 sequence (P79218 whole entry): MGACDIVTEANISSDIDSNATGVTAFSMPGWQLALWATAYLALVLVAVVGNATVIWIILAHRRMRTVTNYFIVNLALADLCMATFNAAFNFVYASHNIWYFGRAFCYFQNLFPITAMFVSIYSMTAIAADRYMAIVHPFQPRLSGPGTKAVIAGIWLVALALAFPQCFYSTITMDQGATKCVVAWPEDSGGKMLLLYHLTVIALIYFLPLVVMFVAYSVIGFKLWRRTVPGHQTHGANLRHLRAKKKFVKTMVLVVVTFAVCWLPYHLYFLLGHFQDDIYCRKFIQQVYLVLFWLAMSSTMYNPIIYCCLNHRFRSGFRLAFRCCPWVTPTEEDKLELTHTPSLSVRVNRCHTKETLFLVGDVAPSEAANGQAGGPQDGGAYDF

[7] = target: T3, Neuromedin-K receptor (Rattus norvegicus, UniProt P16177); experiment: […] for NK-3 receptor was determined in vitro using isolated rat portal vein.
T3 sequence (P16177 whole entry): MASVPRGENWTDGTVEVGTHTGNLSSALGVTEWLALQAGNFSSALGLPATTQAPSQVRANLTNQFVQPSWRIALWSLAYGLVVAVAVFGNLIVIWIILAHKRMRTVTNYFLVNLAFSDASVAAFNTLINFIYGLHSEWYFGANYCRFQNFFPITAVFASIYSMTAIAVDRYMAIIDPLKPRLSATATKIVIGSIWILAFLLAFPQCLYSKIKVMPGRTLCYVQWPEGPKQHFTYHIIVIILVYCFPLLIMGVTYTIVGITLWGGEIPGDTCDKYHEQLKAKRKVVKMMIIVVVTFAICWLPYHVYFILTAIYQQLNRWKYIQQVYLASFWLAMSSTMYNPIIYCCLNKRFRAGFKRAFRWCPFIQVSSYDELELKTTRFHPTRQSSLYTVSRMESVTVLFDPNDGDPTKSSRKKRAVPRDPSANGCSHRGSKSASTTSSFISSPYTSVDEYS

[8] = target: T2, Substance-K receptor; experiment: Antagonistic potency for NK-2 receptor was determined in vitro, using isolated rabbit pulmonary artery.; format: functional; settings: read-out: pA2 (converted)
[9] = target: T3, Neuromedin-K receptor; experiment: Antagonistic potency for NK-3 receptor was determined in vitro, using isolated rat portal vein.; format: functional; settings: read-out: pA2 (converted)

Ki [4] | Ki [5] | pA2 [6] | pA2 [7] | Kb [8] | Kb [9] | SMILES | Effective dose [1] | Effective dose [2] | ED50 [3] | ED50 ([1]; read-out: ID50 (the source's name))
4.2 µM | 0.0024 µM | 5.2 | 5.5 |  |  | O=C(OCc1cc(C(F)(F)F)cc(C(F)(F)F)c1)[C@H](Cc1c[nH]c2ccccc12)NC(=O)[C@H]1C[C@H](O)CN1C(=O)c1cn(CCCCc2nnn[n-]2)c2ccccc12.[K+] | 0.026 mg/kg | 0.5 mM | 0.05 µmol/kg | 
 |  |  |  | 6.31 µM | 6.31 µM | CC(=O)N[C@@H](Cc1c[nH]c2ccccc12)C(=O)OCc1cc(C(F)(F)F)cc(C(F)(F)F)c1 [L-732138] |  |  |  | 
2.4 µM |  | 5.6 | 5 |  |  | CN(Cc1ccccc1)C(=O)[C@H](Cc1ccc2ccccc2c1)NC(=O)[C@H]1C[C@H](O)CN1C(=O)c1cn(CCCCc2nnn[nH]2)c2ccccc12 |  |  |  | 
 |  |  |  | > 100 µM | > 100 µM | COc1ccccc1CN[C@H]1CCCN[C@H]1c1ccccc1 [CP-99994] |  |  |  | 0.014 mg/kg
